Source: PubChem BioAssay (NCI)
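These data come from cells grown in 96-well plates and exposed to compound for 48 hours at five concentrations. At the TGI there is no net growth.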

How the values were obtained:
Assay in all cases: DTP human tumour cell line panel, 48 h
SK-MEL-28 melanoma = tested on: SK-MEL-28 melanoma
RPMI-8226 leukemia = tested on: RPMI-8226 leukemia
SF-539 CNS = tested on: SF-539 CNS
LOX IMVI melanoma = tested on: LOX IMVI melanoma
KM12 colon = tested on: KM12 colon
K-562 leukemia = tested on: K-562 leukemia
SR leukemia = tested on: SR leukemia
COLO 205 colon = tested on: COLO 205 colon
M19-MEL melanoma = tested on: M19-MEL melanoma
ACHN renal = tested on: ACHN renal
MOLT-4 leukemia = tested on: MOLT-4 leukemia
OVCAR-4 ovarian = tested on: OVCAR-4 ovarian
SW-620 colon = tested on: SW-620 colon
OVCAR-3 ovarian = tested on: OVCAR-3 ovarian
DLD-1 colon = tested on: DLD-1 colon
SNB-75 CNS = tested on: SNB-75 CNS
M14 melanoma = tested on: M14 melanoma
SK-OV-3 ovarian = tested on: SK-OV-3 ovarian
UACC-62 melanoma = tested on: UACC-62 melanoma
SNB-19 CNS = tested on: SNB-19 CNS
NCI-H226 lung = tested on: NCI-H226 lung
A498 renal = tested on: A498 renal
SNB-78 CNS = tested on: SNB-78 CNS
DMS 114 small cell lung = tested on: DMS 114 small cell lung
CCRF-CEM leukemia = tested on: CCRF-CEM leukemia
DMS 273 small cell lung = tested on: DMS 273 small cell lung
LXFL 529 NSCLC = tested on: LXFL 529 NSCLC
HOP-18 NSCLC = tested on: HOP-18 NSCLC
IGROV1 ovarian = tested on: IGROV1 ovarian
U251 CNS = tested on: U251 CNS
HL-60(TB) leukemia = tested on: HL-60(TB) leukemia
RXF 393 renal = tested on: RXF 393 renal
OVCAR-8 ovarian = tested on: OVCAR-8 ovarian
SK-MEL-5 melanoma = tested on: SK-MEL-5 melanoma
OVCAR-5 ovarian = tested on: OVCAR-5 ovarian
EKVX NSCLC = tested on: EKVX NSCLC
NCI-H23 lung = tested on: NCI-H23 lung
TK-10 renal = tested on: TK-10 renal
UO-31 renal = tested on: UO-31 renal
SF-295 CNS = tested on: SF-295 CNS
NCI-H460 lung = tested on: NCI-H460 lung
786-0 renal = tested on: 786-0 renal
HT29 colon = tested on: HT29 colon
SF-268 CNS = tested on: SF-268 CNS
A549 NSCLC = tested on: A549 NSCLC
HOP-62 NSCLC = tested on: HOP-62 NSCLC
HCC-2998 colon = tested on: HCC-2998 colon
HCT-15 colon = tested on: HCT-15 colon
XF 498 CNS = tested on: XF 498 CNS
SK-MEL-2 melanoma = tested on: SK-MEL-2 melanoma
CAKI-1 renal = tested on: CAKI-1 renal
HOP-92 NSCLC = tested on: HOP-92 NSCLC
NCI-H522 lung = tested on: NCI-H522 lung
UACC-257 melanoma = tested on: UACC-257 melanoma
MALME-3M melanoma = tested on: MALME-3M melanoma

Q: How did the TGI (SK-MEL-28 melanoma) turn out when `O=C1C=C(c2[nH]c3ccccc3c2C2=CC(=O)c3ccccc3C2=O)C(=O)c2ccccc21` was run?
A: > 100 µM

Q: What about the TGI (RPMI-8226 leukemia) of the same molecule?
A: > 100 µM

Q: What about the TGI (SF-539 CNS) of the same molecule?
A: > 100 µM

Q: What about the TGI (LOX IMVI melanoma) of the same molecule?
A: 59 µM

Q: What about the TGI (KM12 colon) of the same molecule?
A: > 100 µM

Q: And the TGI (K-562 leukemia)?
A: 60.1 µM

Q: What about the TGI (SR leukemia) of the same molecule?
A: 57.1 µM

Q: And the TGI (COLO 205 colon)?
A: > 100 µM

Q: And the TGI (M19-MEL melanoma)?
A: 35.4 µM

Q: And the TGI (ACHN renal)?
A: > 100 µM

Q: And the TGI (MOLT-4 leukemia)?
A: 35.7 µM

Q: And the TGI (OVCAR-4 ovarian)?
A: > 100 µM

Q: And the TGI (SW-620 colon)?
A: > 100 µM

Q: And the TGI (OVCAR-3 ovarian)?
A: 88.3 µM

Q: What about the TGI (DLD-1 colon) of the same molecule?
A: > 100 µM

Q: What about the TGI (SNB-75 CNS) of the same molecule?
A: 57.6 µM

Q: And the TGI (M14 melanoma)?
A: > 100 µM

Q: And the TGI (SK-OV-3 ovarian)?
A: > 100 µM

Q: And the TGI (UACC-62 melanoma)?
A: 71.3 µM

Q: And the TGI (SNB-19 CNS)?
A: > 100 µM

Q: And the TGI (NCI-H226 lung)?
A: > 100 µM

Q: And the TGI (A498 renal)?
A: > 100 µM

Q: And the TGI (SNB-78 CNS)?
A: > 100 µM

Q: What about the TGI (DMS 114 small cell lung) of the same molecule?
A: 36.6 µM

Q: And the TGI (CCRF-CEM leukemia)?
A: 43.9 µM

Q: What about the TGI (DMS 273 small cell lung) of the same molecule?
A: > 100 µM

Q: What about the TGI (LXFL 529 NSCLC) of the same molecule?
A: > 100 µM

Q: What about the TGI (HOP-18 NSCLC) of the same molecule?
A: > 100 µM

Q: What about the TGI (IGROV1 ovarian) of the same molecule?
A: 95.6 µM

Q: What about the TGI (U251 CNS) of the same molecule?
A: > 100 µM

Q: And the TGI (HL-60(TB) leukemia)?
A: 44.4 µM

Q: What about the TGI (RXF 393 renal) of the same molecule?
A: > 100 µM

Q: And the TGI (OVCAR-8 ovarian)?
A: > 100 µM

Q: And the TGI (SK-MEL-5 melanoma)?
A: > 100 µM

Q: And the TGI (OVCAR-5 ovarian)?
A: > 100 µM

Q: What about the TGI (EKVX NSCLC) of the same molecule?
A: > 100 µM

Q: What about the TGI (NCI-H23 lung) of the same molecule?
A: > 100 µM

Q: What about the TGI (TK-10 renal) of the same molecule?
A: > 100 µM

Q: And the TGI (UO-31 renal)?
A: > 100 µM

Q: And the TGI (SF-295 CNS)?
A: > 100 µM

Q: And the TGI (NCI-H460 lung)?
A: > 100 µM

Q: What about the TGI (786-0 renal) of the same molecule?
A: > 100 µM

Q: What about the TGI (HT29 colon) of the same molecule?
A: > 100 µM

Q: And the TGI (SF-268 CNS)?
A: > 100 µM

Q: What about the TGI (A549 NSCLC) of the same molecule?
A: > 100 µM

Q: How did the TGI (SK-MEL-28 melanoma) turn out when `COC1=CC(=O)[C@]2(C)[C@H](C1=O)C(C)[C@H]2c1ccc(OC)cc1` (stereo partly drawn) was run?
A: > 100 µM

Q: What about the TGI (RPMI-8226 leukemia) of the same molecule?
A: > 100 µM

Q: What about the TGI (SF-539 CNS) of the same molecule?
A: > 100 µM

Q: What about the TGI (LOX IMVI melanoma) of the same molecule?
A: > 100 µM

Q: What about the TGI (KM12 colon) of the same molecule?
A: > 100 µM

Q: And the TGI (K-562 leukemia)?
A: > 100 µM

Q: And the TGI (SR leukemia)?
A: > 100 µM

Q: And the TGI (COLO 205 colon)?
A: > 100 µM

Q: And the TGI (M19-MEL melanoma)?
A: > 100 µM

Q: And the TGI (HOP-62 NSCLC)?
A: > 100 µM

Q: And the TGI (ACHN renal)?
A: > 100 µM

Q: And the TGI (MOLT-4 leukemia)?
A: > 100 µM

Q: And the TGI (HCC-2998 colon)?
A: > 100 µM

Q: What about the TGI (OVCAR-4 ovarian) of the same molecule?
A: > 100 µM

Q: What about the TGI (SW-620 colon) of the same molecule?
A: > 100 µM

Q: And the TGI (HCT-15 colon)?
A: > 100 µM

Q: What about the TGI (XF 498 CNS) of the same molecule?
A: > 100 µM

Q: What about the TGI (SK-MEL-2 melanoma) of the same molecule?
A: > 100 µM

Q: And the TGI (OVCAR-3 ovarian)?
A: > 100 µM

Q: What about the TGI (DLD-1 colon) of the same molecule?
A: > 100 µM

Q: What about the TGI (SNB-75 CNS) of the same molecule?
A: > 100 µM

Q: And the TGI (M14 melanoma)?
A: > 100 µM

Q: And the TGI (CAKI-1 renal)?
A: > 100 µM

Q: What about the TGI (SK-OV-3 ovarian) of the same molecule?
A: > 100 µM

Q: And the TGI (UACC-62 melanoma)?
A: > 100 µM

Q: And the TGI (SNB-19 CNS)?
A: > 100 µM

Q: And the TGI (NCI-H226 lung)?
A: > 100 µM

Q: What about the TGI (A498 renal) of the same molecule?
A: > 100 µM

Q: And the TGI (HOP-92 NSCLC)?
A: > 100 µM

Q: What about the TGI (SNB-78 CNS) of the same molecule?
A: > 100 µM

Q: What about the TGI (CCRF-CEM leukemia) of the same molecule?
A: > 100 µM

Q: What about the TGI (DMS 273 small cell lung) of the same molecule?
A: > 100 µM

Q: What about the TGI (LXFL 529 NSCLC) of the same molecule?
A: > 100 µM

Q: What about the TGI (IGROV1 ovarian) of the same molecule?
A: > 100 µM

Q: And the TGI (U251 CNS)?
A: > 100 µM

Q: And the TGI (HL-60(TB) leukemia)?
A: > 100 µM

Q: What about the TGI (RXF 393 renal) of the same molecule?
A: > 100 µM

Q: What about the TGI (OVCAR-8 ovarian) of the same molecule?
A: > 100 µM

Q: What about the TGI (SK-MEL-5 melanoma) of the same molecule?
A: > 100 µM

Q: What about the TGI (OVCAR-5 ovarian) of the same molecule?
A: > 100 µM

Q: And the TGI (EKVX NSCLC)?
A: > 100 µM

Q: And the TGI (NCI-H522 lung)?
A: > 100 µM

Q: What about the TGI (NCI-H23 lung) of the same molecule?
A: > 100 µM

Q: What about the TGI (TK-10 renal) of the same molecule?
A: > 100 µM

Q: What about the TGI (UO-31 renal) of the same molecule?
A: > 100 µM

Q: What about the TGI (UACC-257 melanoma) of the same molecule?
A: > 100 µM

Q: And the TGI (SF-295 CNS)?
A: > 100 µM

Q: What about the TGI (MALME-3M melanoma) of the same molecule?
A: > 100 µM

Q: And the TGI (NCI-H460 lung)?
A: > 100 µM

Q: And the TGI (786-0 renal)?
A: > 100 µM

Q: What about the TGI (HT29 colon) of the same molecule?
A: > 100 µM

Q: What about the TGI (SF-268 CNS) of the same molecule?
A: > 100 µM

Q: What about the TGI (A549 NSCLC) of the same molecule?
A: > 100 µM
